Like-named read-outs stand apart in the source and are kept apart here.
Test system: T-47D cells
Assay: Caspase cascade activation / induction of apoptosis in T-47D cells (fluorogenic N-(Ac-DEVD)-N'-ethoxycarbonyl-R110 substrate)
Format: cell-based, human
Settings: for EC50: Homo sapiens, T47D
[1] = T-47D, 48 hr, benzohydrazide table, read-out: T-47D (48 hr) EC50
[2] = T-47D, 48 hr, benzohydrazide table
[3] = T-47D, 24 hr, read-out: T-47D (24 hr) EC50
[4] = T-47D, 48 hr, read-out: T-47D (48 hr) EC50

SMILES	EC50 [3] [nM]	EC50 [4] [nM]	also measured
CSc1nc(N(C)NC(=O)c2ccc(Cl)cc2)c2ccccc2n1	–	–	EC50 [1]: 138 nM; T-47D (48 hr) Ratio [2]: 14.4
CSc1nc(N(C)NC(=O)c2cccs2)c2ccccc2n1	–	–	EC50 [1]: 737 nM; T-47D (48 hr) Ratio [2]: 10.1
CSc1nc(N(C)NC(=O)c2ccccc2)c2ccccc2n1	–	–	EC50 [1]: 149 nM; T-47D (48 hr) Ratio [2]: 14.7
CN(NC(=O)c1ccccc1F)c1nc(C(F)(F)F)nc2ccccc12	–	–	EC50 [1]: 184 nM; T-47D (48 hr) Ratio [2]: 13.7
CSc1nc(N(C)NC(=O)c2ccc(F)cc2)c2ccccc2n1	–	–	EC50 [1]: 290 nM; T-47D (48 hr) Ratio [2]: 13.8
CSc1nc(N(C)NC(=O)c2cccc(C)c2)c2ccccc2n1	–	–	EC50 [1]: 46 nM; T-47D (48 hr) Ratio [2]: 12.7
COc1ccc(C(=O)NN(C)c2nc(C(F)(F)F)nc3ccccc23)cc1	–	–	EC50 [1]: 39 nM; T-47D (48 hr) Ratio [2]: 13.1
CN(c1ccc(OC(F)(F)F)cc1)c1nc(Cl)nc2ccccc12 [Example 5, (2-Chloro-quinazolin-4-yl)-(4-trifluoromethoxy-phenyl)-methyl-amine]	24	–	–
Cc1ccc(Nc2nc(Cl)nc3ccccc23)cc1 [Example 8, (2-Chloro-quinazolin-4-yl)-(4-methyl-phenyl)-amine]	> 10000	–	–
COc1ccc(N(C)c2nc(NO)nc3ccccc23)cc1 [Example 10, N^2-Hydroxyl-N^4-(4-methoxy-phenyl)-N^4-methyl-quinazoline-2,4-diamine]	–	48	–
CC(C)=CCC/C(C)=C/CNc1nc(N(C)c2ccc(C)cc2)c2ccccc2n1 [Example 16, N^2-(3,7-Dimethyl-octa-2,6-dienyl)-N^4-(4-methyl-phenyl)-N^4-methyl-quinazoline-2,4-diamine]	296	–	–
COc1ccc(N(C)c2nc(NC/C=C(\C)CCC=C(C)C)nc3cc(OC)c(OC)cc23)cc1 [Example 24, 6,7-Dimethoxy-N^2-(3,7-dimethyl-octa-2,6-dienyl)-N^4-(4-methoxy-phenyl)-N^4-methyl-quinazoline-2,4-diamine]	> 10000	9460	–
COc1ccc(CN(C)c2nc(Cl)nc3ccccc23)cc1 [Example 26, (2-Chloro-quinazolin-4-yl)-(4-methoxy-benzyl)-methyl-amine]	–	178	–
Clc1nc(Nc2ccncc2)c2ccccc2n1 [Example 27, (2-Chloro-quinazolin-4-yl)-pyridin-4-yl-amine]	–	> 10000	–
COc1cccc(Nc2nc(Cl)nc3ccccc23)c1OC [Example 29, (2-Chloro-quinazolin-4-yl)-(2,3-dimethoxy-phenyl)-amine]	–	> 10000	–
COc1ccc(Nc2nc(Cl)nc3ccccc23)c(OC)c1 [Example 30, (2-Chloro-quinazolin-4-yl)-(2,4-dimethoxy-phenyl)-amine]	–	> 10000	–
COc1cccc(Nc2nc(Cl)nc3ccccc23)c1 [Example 32, (2-Chloro-quinazolin-4-yl)-(3-methoxy-phenyl)-amine]	–	> 10000	–
COc1cccc(N(C)c2nc(Cl)nc3ccccc23)c1OC [Example 39, (2-Chloro-quinazolin-4-yl)-(2,3-dimethoxy-phenyl)-methyl-amine]	693	–	–
CCN(c1ccc(OC)cc1)c1nc(Cl)nc2ccccc12 [Example 40, (2-Chloro-quinazolin-4-yl)-ethyl-(4-methoxy-phenyl)-amine]	–	47	–
COc1ccc(N(C)c2nc(NCCc3c[nH]cn3)nc3ccccc23)cc1 [Example 46, N^2-[2-(1H-Imidazol-4-yl)-ethyl]-N^4-(4-methoxy-phenyl)-N^4-methyl-quinazoline-2,4-diamine]	2180	2270	–
COc1ccc(N(C)c2nc(NCCCN(C)C)nc3ccccc23)cc1 [Example 47, N^2-(3-Dimethylamino-propyl)-N^4-(4-methoxy-phenyl)-N^4-methyl-quinazoline-2,4-diamine]	–	187	–
COc1ccc(N(C)c2nc(NCCO)nc3ccccc23)cn1 [Example 48, N^2-(2-Hydroxyethyl)-N^4-(6-methoxypyridin-3-yl)-N^4-methyl-quinazoline-2,4-diamine]	–	137	–
COc1ccc(N(C)c2nc(N)nc3ccccc23)cn1 [Example 49, N^4-(6-methoxypyridin-3-yl)-N^4-methyl-quinazoline-2,4-diamine]	29	22	–
COc1ccc(N(C)c2nc(Cl)nc3[nH]cnc23)cc1 [Example 51, (2-Chloro-9H-purin-6-yl)-(4-methoxy-phenyl)-methyl-amine]	–	> 10000	–
COC(=O)c1ccc(N(C)c2nc(Cl)nc3ccccc23)cc1 [Example 52, (2-Chloro-quinazolin-4-yl)-(4-methylcarboxyphenyl)-methyl-amine]	–	6	–
CN(c1ccc(O)cc1)c1nc(Cl)nc2ccccc12 [Example 54, (2-Chloro-quinazolin-4-yl)-(4-hydroxyphenyl)-methylamine]	–	46	–
COc1ccc(N(C)c2nc(Cl)nc3cc(C)ccc23)cc1 [Example 57, (2-Chloro-7-methyl-quinazolin-4-yl)-(4-methoxy-phenyl)-methyl-amine]	–	432	–

Continued, in another order:

EC50 [3] [nM]	EC50 [4] [nM]	SMILES	also measured
79	–	CN(c1ccc(Cl)cc1)c1nc(Cl)nc2ccccc12 [Example 3, (2-Chloro-quinazolin-4-yl)-(4-chloro-phenyl)-methyl-amine]	–
872	–	CN(c1ccc([N+](=O)[O-])cc1)c1nc(Cl)nc2ccccc12 [Example 4, (2-Chloro-quinazolin-4-yl)-(4-nitro-phenyl)-methyl-amine]	–
–	> 10000	COc1ccc2c(ccn2-c2nc(Cl)nc3ccccc23)c1 [Example 9, 2-Chloro-4-(5-methoxyindol-1-yl)quinazoline]	–
8	10	COc1ccc(N(C)c2nc(NCCO)nc3ccccc23)cc1 [Example 11, N^2-(2-Hydroxylethyl)-N^4-(4-methoxy-phenyl)-N^4-methyl-quinazoline-2,4-diamine]	–
8	9	COc1ccc(N(C)c2nc(N)nc3ccccc23)cc1 [Example 12, N^4-(4-Methoxy-phenyl)-methyl-quinazoline-2,4-diamine]	EC50 (Table III, time not given, repeats 24 hr or 48 hr T-47D values of Table I, read-out: Caspase activation (EC50 nM)): 8 nM
1340	1330	COc1ccc(N(C)c2nc(NCCN3CCOCC3)nc3ccccc23)cc1 [Example 14, N^4-(4-Methoxy-phenyl)-N^4-methyl-N^2-(2-morpholin-4-yl-ethyl)-quinazoline-2,4-diamine]	–
56	89	COc1ccc(N(C)c2nc(N3CCOCC3)nc3ccccc23)cc1 [Example 15, (4-Methoxy-phenyl)-methyl-(2-morpholin-4-yl-quinazolin-4-yl)-amine]	–
7940	–	COc1ccc(N(C)c2nc(N)nc3[nH]cnc23)cc1 [Example 17, N^6-(4-Methoxy-phenyl)-N^6-methyl-9H-purine-2,6-diamine]	–
> 10000	> 10000	CN(c1ccccc1)c1nc(N(C)c2ccccc2)c2ccccc2n1 [Example 18, N^2,N^4-Dimethyl-N^2,N^4-diphenyl-quinazoline-2,4-diamine]	–
> 10000	> 10000	CN(c1ccc(Cl)cc1)c1nc(N(C)c2ccc(Cl)cc2)c2ccccc2n1 [Example 19, N^2,N^4-Bis(4-chloro-phenyl)-N^2,N^4-dimethyl-quinazoline-2,4-diamine]	–
> 10000	> 10000	COc1ccc(Nc2nc(Cl)nc3cc(OC)c(OC)cc23)cc1 [Example 21, (2-Chloro-6,7-dimethoxyquinazolin-4-yl)-(4-methoxy-phenyl)-amine]	–
> 10000	> 10000	COc1cc2nc(Cl)nc(N(C)c3ccc(C)cc3)c2cc1OC [Example 22, (2-Chloro-6,7-dimethoxyquinazolin-4-yl)-(4-methyl-phenyl)-methyl-amine]	–
> 10000	> 10000	COc1ccc(N(C)c2nc(NCCN3CCOCC3)nc3cc(OC)c(OC)cc23)cc1 [Example 23, 6,7-Dimethoxy-N^4-(4-methoxy-phenyl)-N^4-methyl-N^2-(2-morpholin-4-yl-ethyl)-quinazoline-2,4-diamine]	–
> 10000	> 10000	COc1ccc(Nc2nc(Cl)nc3ccccc23)cn1 [Example 28, (2-Chloro-quinazolin-4-yl)-(6-methoxy-pyridin-3-yl)-amine]	–
–	> 10000	COc1ccccc1Nc1nc(Cl)nc2ccccc12 [Example 33, (2-Chloro-quinazolin-4-yl)-(2-methoxy-phenyl)-amine]	–
2690	–	COc1ccc(N(c2nc(Cl)nc3ccccc23)C(C)C)cc1 [Example 37, (2-Chloro-quinazolin-4-yl)-isopropyl-(4-methoxy-phenyl)-amine]	–
2930	–	COc1ccc(N(c2nc(Cl)nc3ccccc23)C2CCCCC2)cc1 [Example 38, (2-Chloro-quinazolin-4-yl)-cyclohexyl-(4-methoxy-phenyl)-amine]	–
–	> 10000	COc1ccc(N(c2nc(Cl)nc3ccccc23)C2CCCC2)cc1 [Example 45, (2-Chloro-quinazolin-4-yl)-cyclopentyl-(4-methoxy-phenyl)-amine]	–
–	> 10000	COc1ccc(N(C)c2nc(NCCO)nc3cc(OC)c(OC)cc23)cc1 [Example 50, N^2-(2-Hydroxyethyl)-N^4-(4-methoxy-phenyl)-N^4-methyl-6,7-dimethoxyquinazoline-2,4-diamine]	–
–	1	COc1ccc(N(C)c2nc(CF)nc3ccccc23)cc1 [Example 55, (2-Fluoromethyl-quinazolin-4-yl)-(4-methoxy-phenyl)-methyl-amine]	–
–	5	COc1ccc(N(C)c2nc(Cl)nc3ccc(C)cc23)cc1 [Example 56, (2-Chloro-6-methyl-quinazolin-4-yl)-(4-methoxy-phenyl)-methyl-amine]	–
–	1	COc1ccc(N(C)c2nc(Cl)nc3cccc(C)c23)cc1 [Example 58, (2-Chloro-5-methyl-quinazolin-4-yl)-(4-methoxy-phenyl)-methyl-amine]	–
–	11	COc1ccc(N(C)c2nc(Cl)nc3c(C)cccc23)cc1 [Example 59, (2-Chloro-8-methyl-quinazolin-4-yl)-(4-methoxy-phenyl)-methyl-amine]	–
